Measurements taken from patent US12371454B2, “Cyclic peptide compound having Kras inhibitory action” (priority 2019, dated 2025).
Starred links: 1 amine or outer side, 2 acyl side, 3 side chain; linkers in the order of their positions; H or OH if unused. Positions of bridges follow the written chain, without caps; N, C: chain ends. Non-standard residues stand in square brackets, D forms with d. Residues, ends and D or L forms follow the SMILES beside them. *: point of attachment. hPhe(3-Cl-4-CF3) = N[C@@H](CCc1ccc(C(F)(F)F)c(Cl)c1)C(=O)O; hPhe(3-F,4-CF3) = N[C@@H](CCc1ccc(C(F)(F)F)c(F)c1)C(=O)O; hPhe(4-CF3) = N[C@@H](CCc1ccc(C(F)(F)F)cc1)C(=O)O; NEtPhe(4-Cl) = CCN[C@@H](Cc1ccc(Cl)cc1)C(=O)O; NMePhe(4-Cl) = CN[C@@H](Cc1ccc(Cl)cc1)C(=O)O; NMePhe(2-Cl) = CN[C@@H](Cc1ccccc1Cl)C(=O)O; NMedβ3hAla = C[C@H](CC(=O)[*:2])N(C)[*:1]; NMeGly(cPent) = CN[C@H](C(=O)O)C1CCCC1; Phe(3-I) = N[C@@H](Cc1cccc(I)c1)C(=O)O; NMeCha = CN[C@@H](CC1CCCCC1)C(=O)O; Ala(cPr) = N[C@@H](CC1CC1)C(=O)O; NMeD = CN[C@@H](CC(=O)O)C(=O)O; NMeL = CN[C@@H](CC(C)C)C(=O)O; NMeV = CN[C@H](C(=O)O)C(C)C; d(β3hA) = C[C@@H](N)CC(=O)O; NMeAbu = CC[C@H](NC)C(=O)O; NMeA = CN[C@@H](C)C(=O)O; NMeAib = CNC(C)(C)C(=O)O; Nle = CCCC[C@H](N)C(=O)O; Piperidide = C1CCN(*)CC1; Pyrrolidide = C1CCN(*)C1; dNMeA = CN[C@H](C)C(=O)O; Ac5c = NC1(C(=O)O)CCCC1; Aze = O=C(O)[C@@H]1CCN1; Thp = NC1(C(=O)O)CCOCC1; Aib = CC(C)(N)C(=O)O; NPrGly = CCCNCC(=O)O; Sar = CNCC(=O)O

Target: T1, Kras and SOS1 (biotin-tagged human Kras loaded with GDP, His-tagged human SOS1) (Homo sapiens, UniProt P01116, G12D)
T1 construct: made in house; host or cells: E. coli (stated for Kras only)
T1 sequence (P01116 1-188 isoform P01116-2 G12D): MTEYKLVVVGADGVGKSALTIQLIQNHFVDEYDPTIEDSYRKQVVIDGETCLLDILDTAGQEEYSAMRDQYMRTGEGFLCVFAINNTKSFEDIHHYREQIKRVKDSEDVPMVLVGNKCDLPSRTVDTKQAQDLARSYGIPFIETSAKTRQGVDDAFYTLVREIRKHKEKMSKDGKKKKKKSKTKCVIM
Test: Protein-protein interaction inhibition between Kras and SOS1 (KrasGl2D-SOS PPI) using AlphaScreen
Assay type: binding
Settings: AlphaScreen; biotin-tagged human Kras loaded with GDP, His-tagged human SOS1; read-out: KRAS G12D-SOS PPI IC50
How it was run: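 Donor beads (nickel) hold His-SOS1; acceptor beads (streptavidin) hold biotin-Kras bound to GDP. Signal measured at 520-620 nm following 680 nm excitation.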

Row | SMILES | IC50 [µM]
1 | CCCN1CC(=O)N(C)[C@@H](CC2CCCCC2)C(=O)N(C)CC(=O)N[C@@H](CCc2ccc(C(F)(F)F)c(Cl)c2)C(=O)N2CCC[C@H]2C(=O)NC2(CCCC2)C(=O)N(C)[C@@H](C(C)C)C(=O)N[C@H](C)CC(=O)N(C)[C@@H](CC(C)C)C(=O)N[C@@H]([C@@H](C)CC)C(=O)N(C)CC1=O [Compound 405] (cyclo([Ac5c][NMeV][d(β3hA)][NMeL]I[Sar][NPrGly][NMeCha][Sar][hPhe(3-Cl-4-CF3)]P)) | 0.27
2 | CC[C@H](C)[C@@H]1NC(=O)[C@H](CC(C)C)N(C)C(=O)C[C@@H](C)N(C)C(=O)[C@H](CC(C)C)N(C)C(=O)C2(CCOCC2)NC(=O)[C@@H]2CCCN2C(=O)[C@H](CCc2ccc(C(F)(F)F)c(F)c2)NC(=O)CN(C)C(=O)[C@H](CC2CCCCC2)N(C)C(=O)CN(C)C(=O)CN(C)C1=O [Compound 407] (cyclo(I[Sar][Sar][NMeCha][Sar][hPhe(3-F,4-CF3)]P[Thp][NMeL][NMedβ3hAla][NMeL])) | 0.039
3 | CC[C@H](C)[C@@H]1NC(=O)[C@H](C)N(C)C(=O)C[C@@H](C)NC(=O)[C@H](C2CCCC2)N(C)C(=O)C2(CCCC2)NC(=O)[C@@H]2CCCN2C(=O)[C@H](CCc2ccc(C(F)(F)F)c(Cl)c2)NC(=O)[C@@H](C)N(C)C(=O)[C@H](CC)N(C)C(=O)CN(C)C(=O)CN(C)C1=O [Compound 413] (cyclo([Ac5c][NMeGly(cPent)][d(β3hA)][NMeA]I[Sar][Sar][NMeAbu][dNMeA][hPhe(3-Cl-4-CF3)]P)) | 0.05
4 | CC[C@H](C)[C@@H]1NC(=O)[C@H](CC(C)C)N(C)C(=O)C[C@@H](C)NC(=O)[C@H](CC(C)C)N(C)C(=O)C2(CCCC2)NC(=O)[C@@H]2CCCN2C(=O)[C@H](CCc2ccc(C(F)(F)F)cc2)NC(=O)CN(C)C(=O)[C@H](CC2CCCCC2)N(C)C(=O)CN(C)C(=O)CN(C)C1=O [Compound 414] (cyclo([Ac5c][NMeL][d(β3hA)][NMeL]I[Sar][Sar][NMeCha][Sar][hPhe(4-CF3)]P)) | 0.11
5 | CC[C@H](C)[C@@H]1NC(=O)[C@H](CC(C)C)N(C)C(=O)C[C@@H](C(=O)N2CCCCC2)NC(=O)[C@H](C(C)C)N(C)C(=O)C2(CCCC2)NC(=O)[C@@H]2CCCN2C(=O)[C@H](CCc2ccc(C(F)(F)F)c(Cl)c2)NC(=O)CN(C)C(=O)[C@H](CC2CCCCC2)N(C)C(=O)CN(C)C(=O)CN(C)C1=O [Compound 417] ([NMeL]I[Sar][Sar][NMeCha][Sar][hPhe(3-Cl-4-CF3)]P[Ac5c][NMeV]D-Piperidide; lactam N-11) | 0.015
6 | CC[C@H](C)[C@@H]1NC(=O)[C@H](C(C)C)N(C)C(=O)C[C@@H](C)NC(=O)[C@H](CC(C)C)N(C)C(=O)C2(CCCC2)NC(=O)[C@H](CC(C)C)N(C)C(=O)[C@H](CCc2ccc(C(F)(F)F)c(F)c2)NC(=O)CN(C)C(=O)[C@H](Cc2ccc(Cl)cc2)N(C)C(=O)[C@@H]2CCN2C(=O)CN(C)C1=O [Compound 418] (cyclo([Ac5c][NMeL][d(β3hA)][NMeV]I[Sar][Aze][NMePhe(4-Cl)][Sar][hPhe(3-F,4-CF3)][NMeL])) | 0.017
7 | CC(C)C[C@H]1C(=O)N[C@@H](CC2CC2)C(=O)N(C)CC(=O)N(C)CC(=O)N(C)[C@@H](CC2CCCCC2)C(=O)N(C)CC(=O)N[C@@H](CCc2ccc(C(F)(F)F)c(Cl)c2)C(=O)N2CCC[C@H]2C(=O)NC2(CCCC2)C(=O)N(C)[C@@H](C(C)C)C(=O)N(C)[C@H](C(=O)N2CCCCC2)CC(=O)N1C [Compound 421] ([NMeL][Ala(cPr)][Sar][Sar][NMeCha][Sar][hPhe(3-Cl-4-CF3)]P[Ac5c][NMeV][NMeD]-Piperidide; lactam N-11) | 0.01
8 | CCCC[C@@H]1NC(=O)[C@H](Cc2cccc(I)c2)NC(=O)CN(C)C(=O)[C@H](Cc2ccc(Cl)cc2)N(CC)C(=O)CN(C)C(=O)CN(C)C(=O)[C@H]([C@@H](C)CC)NC(=O)[C@H](CC(C)C)N(C)C(=O)C[C@@H](C(=O)N2CCCCC2)N(C)C(=O)[C@H](CC(C)C)NC(=O)C(C)(C)N(C)C1=O [Compound 423] ([NMeL]I[Sar][Sar][NEtPhe(4-Cl)][Sar][Phe(3-I)][Nle][NMeAib]L[NMeD]-Piperidide; lactam N-11) | 0.064
9 | CC[C@H](C)[C@@H]1NC(=O)[C@H](C)N(C)C(=O)C[C@@H](C(=O)N2CCCC2)N(C)C(=O)[C@H](C(C)C)N(C)C(=O)C(C)(C)NC(=O)[C@H](Cc2ccccc2Cl)N(C)C(=O)[C@H](CCc2ccc(C(F)(F)F)c(Cl)c2)NC(=O)CN(C)C(=O)[C@H](CC2CCCCC2)N(C)C(=O)CN(C)C(=O)CN(C)C1=O [Compound 426] ([NMeA]I[Sar][Sar][NMeCha][Sar][hPhe(3-Cl-4-CF3)][NMePhe(2-Cl)][Aib][NMeV][NMeD]-Pyrrolidide; lactam N-11) | 0.0087
